In publication PMC5913239, “Targeting GLP-1 receptor trafficking to improve agonist efficacy” (Nature Communications, 2018):

Columns and labels:
GLP-1R [1] = molecular target: T1, GLP-1R (Homo sapiens, UniProt P43220); assay: Agonist-induced GLP-1R internalization (cell surface receptor loss), post-stimulation Lumi4-Tb surface labeling, CHO-SNAP-GLP-1R cells; type: cell-based; details: ± 3 μM BETP, 30 min, 100 nM exendin-4, n=4
INS-1 832/3 cells = assay: Insulin secretion in INS-1 832/3 beta cells; type: cell-based, rat; details: INS-1 832/3, 16 h
SNAP-GLP-1R [2] = molecular target: T2, SNAP-GLP-1R (Homo sapiens, UniProt P43220); assay: Competitive association kinetics (TR-FRET, competition with exendin-4-FITC), CHO-SNAP-GLP-1R cells; type: binding
T2 sequence (P43220 24-463): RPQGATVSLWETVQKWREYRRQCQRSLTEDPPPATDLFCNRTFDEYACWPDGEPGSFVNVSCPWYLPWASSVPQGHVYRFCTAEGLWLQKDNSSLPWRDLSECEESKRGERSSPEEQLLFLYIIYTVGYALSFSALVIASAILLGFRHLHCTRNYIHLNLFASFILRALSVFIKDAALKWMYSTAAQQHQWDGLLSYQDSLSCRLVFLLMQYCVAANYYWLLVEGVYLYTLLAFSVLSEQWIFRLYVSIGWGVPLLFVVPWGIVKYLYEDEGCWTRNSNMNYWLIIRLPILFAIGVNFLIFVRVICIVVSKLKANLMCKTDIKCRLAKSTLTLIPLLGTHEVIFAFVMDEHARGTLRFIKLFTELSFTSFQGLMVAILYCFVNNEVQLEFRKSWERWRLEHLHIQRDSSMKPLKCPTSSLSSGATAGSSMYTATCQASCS

SNAP-GLP-1R [3] = molecular target: T2, SNAP-GLP-1R; assay: GLP-1R recycling, plate reader surface labeling, CHO-SNAP-GLP-1R cells; type: cell-based
GLP-1R [4] = molecular target: T1, GLP-1R; assay: cAMP accumulation (HTRF) in PathHunter CHO-GLP-1R cells; type: cell-based; design: host or cells: PathHunter CHO-K1 reporter cells (purchased cell lines); details: ± 3 μM BETP, n=3
GLP-1R [5] = molecular target: T1, GLP-1R; assay: β-arrestin-2 recruitment, PathHunter CHO-GLP-1R cells; type: cell-based; design: host or cells: PathHunter CHO-K1 reporter cells (purchased cell lines); details: ± 3 μM BETP, n=3

T1 sequence (P43220 24-463): as above

| effect on exendin-4-induced internalization (GLP-1R [1]) | effect on exendin-4 association rate (SNAP-GLP-1R [2]; ± 10 μM BETP, n=4) | effect on exendin-4 residence time (SNAP-GLP-1R [2]; ± 10 μM BETP, n=4) | effect on GLP-1R recycling after exendin-4 exposure (SNAP-GLP-1R [3]; ± 3 μM BETP, 60 min recycling, 100 nM exendin-4, n=4) | effect on exendin-4 cAMP response (GLP-1R [4]) | effect on exendin-4 β-arrestin-2 recruitment response (GLP-1R [5]) | agonist residence time (comparison in words) (SNAP-GLP-1R [2]; CHO-SNAP-GLP-1R, normalized to exendin-4-FITC response per assay, n=5) | GLP-1R recycling (comparison in words) (SNAP-GLP-1R [3]; 100 nM, 60 min, with 10 μM exendin(9-39), n=5) | Molecule | effect on exendin-4-induced prolonged insulin secretion (INS-1 832/3 cells; ± 3 µM BETP, n=5) | prolonged insulin secretion, comparison with licensed GLP-1R agonists (INS-1 832/3 cells; 100 nM, tested in parallel, n=6) |
| --- | --- | --- | --- | --- | --- | --- | --- | --- | --- | --- |
| minimal effect | without changes | increased | slowed | did not affect | did not affect |  |  | CC[S+]([O-])c1nc(-c2cccc(OCc3ccccc3)c2)cc(C(F)(F)F)n1 (stereo not shown) [BETP, 4-(3-(benzyloxy)phenyl)-2-(ethylsulfinyl)-6-(trifluoro-methyl)pyrimidine] | reduced |  |
|  |  |  |  |  |  | shorter than other compounds | modestly increased recycling | Dulaglutide |  | closest to ex-phe1 |
